According to patent US9937163B2, “Remedy for psychoneurotic diseases” (National University Corporation Chiba University, priority 2004, dated 2018):
Marks after values point to notes of the source that are not given here.

Test system: P50 auditory evoked potential in schizophrenic patients
Assay: P50 auditory evoked potential in schizophrenic patients before and 1 h after administration of tropisetron
Assay type: in vivo, human
Experimental: Twenty-two patients with schizophrenia (14 males and 8 females, average age: 39.8 years old (standard deviation 14.0), age range: 18-60 years old) were selected as subjects. The subjects were diagnosed by psychiatrists on the basis of DSM-IV criteria. Psychiatric symptoms and cognitive functions of the subjects were evaluated using Brief Psychiatric Rating Scale (BPRS), Global Assessment of Functioning (GAF), Mini-Mental State Examination (MMSE) and Wechsler Adult Intelligence Scale-Revised (WAIS-R).
First, a baseline P50 auditory evoked potential of a subject was measured (conditioning P50), then the P50 was measured 1 h after administration of 10 mg of tropisetron (test P50). P50 is a positive brain wave which appears approximately 50 m seconds after an auditory stimulus. Consecutive click sounds with an interval of 500 m seconds (conditioning stimulus and test stimulus) at 70 dB were presented every 10 seconds for 120 times, and the brain wave measured at the parietal region was summed to identify P50. The resistance of an electrode was set at 10 kW or less, and the brain wave exceeding ±70 mV was omitted as artifact. The largest positive wave between 40 ms and 90 ms after the conditioning stimulus was designated to be the conditioning P50, and the positive wave after the test stimulus whose latency is the closest to that of the conditioning P50 was designated to be the test P50. The amplitude of P50 was defined as the difference between the positive peak and the preceding negative trough. The P50 ratio was defined as the amplitude of the test P50 divided by the amplitude of the conditioning P50.
Data were expressed as average±standard deviation. The statistical analysis between two groups was performed using Student's t-test. The relationship between variables was confirmed by Pearson's product-moment correlation coefficient. p Values of 0.05 or less were designated to be statistically significant.

[1] = 1 h after administration of 10 mg tropisetron, 19 subjects with baseline P50 ratio larger than 0.5

`CN1[C@@H]2CC[C@H]1C[C@@H](OC(=O)c1c[nH]c3ccccc13)C2` [tropisetron, (1R,3r,5S)-8-methyl-8-azabicyclo[3.2.1]oct-3-yl 1H-indole-3-carboxylate] was tested, and the “Change in amplitude of conditioning P50 between before and after administration” value (10 mg tropisetron, 1 h, 19 subjects, t=0.79, df=18, p=0.44) was “no significant differences”, the “Change in latency of conditioning P50 between before and after administration” value (10 mg tropisetron, 1 h, 19 subjects, t=1.05, df=18, p=0.31) was “no significant differences” and the “Change in P50 ratio between before and after administration” value (10 mg tropisetron, 1 h, 19 subjects, t=2.32, df=18, p=0.033) was “significant decrease”. The “Latency, conditioning P50, After, Mean” value [1] was 59.79 ms, the “Latency, test P50, After, Mean” value [1] was 59.16 ms and the “P50(T/C)ratio, After, Mean” value (1 h after administration of 10 mg tropisetron, 19 subjects with baseline P50 ratio larger than 0.5, amplitude of test P50 divided by amplitude of conditioning P50) was 0.61*. The “Effect on cognitive dysfunction in schizophrenia” value (conclusion drawn from the decrease in P50 ratios in patients with schizophrenia) was “improves cognitive dysfunction in schizophrenia” and the “Number of subjects in whom the P50 ratio improved to 0.5 or less” value (of 19 subjects with baseline P50 ratio larger than 0.5, after 10 mg tropisetron) was “four”.
